Reference: patent US12441725B2, “ISO-citrate dehydrogenase (IDH) inhibitor” (ZHEJIANG METON PHARMACEUTICAL CO., LTD, priority 2019, dated 2025)

Columns and labels:
[1] = target: T1, IDH1 R132C (Homo sapiens, UniProt O75874, R132C); test: Biochemical assay for IDH inhibition (NADPH fluorescence), mutant IDH1 R132C; conditions: 25 nM IDH1-R132C, 1 hour pre-incubation, in triplet
T1 construct: 6xHis
Method in brief: (§1)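 Mutant enzyme (25 nM R132C or 50 nM R132H) was preincubated 1 h at room temperature with compound in pH 7.5 Tris buffer containing 1.33 mM α-KG, and the reaction was then started with NADPH (80 μM solution). NADPH consumption was followed by fluorescence (Ex 340/Em 460 nm) for 15 min. IC50 was derived from background-corrected linear rates relative to vehicle, run in triplicate.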

[2] = target: T2, IDH1 R132H (Homo sapiens, UniProt O75874, R132H); test: Biochemical assay for IDH inhibition (NADPH fluorescence), mutant IDH1 R132H; conditions: 50 nM IDH1-R132H, 1 hour pre-incubation, in triplet
T2 construct: 6xHis
Method in brief: as §1

[3] = target: T3, IDH (endogenous IDH1 R132C) in HT1080 cell (Homo sapiens, UniProt O75874, R132C); test: Cell-based assay for IDH inhibition (decrease of D-2-HG) in HT1080 cells; conditions: human fibrosarcoma cell line HT1080, 16 hours treatment, D-2-HG by LC-MS, in triplet
T3 construct: which harbor endogenous heterozygous IDH1 R132C and R132H mutation respectively and accumulate D-2-HG
Method in brief: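 HT1080 cells with endogenous IDH1 R132C, grown in DMEM/10% FBS, treated with compound at several concentrations for 16 h. Metabolites extracted in cold 40% methanol/40% acetonitrile and D-2-HG measured by HILIC LC-MS/MS, normalized to glutamate. IC50 from D-2-HG relative to DMSO controls; run in triplicate.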

T3 sequence (O75874 2-414 R132C): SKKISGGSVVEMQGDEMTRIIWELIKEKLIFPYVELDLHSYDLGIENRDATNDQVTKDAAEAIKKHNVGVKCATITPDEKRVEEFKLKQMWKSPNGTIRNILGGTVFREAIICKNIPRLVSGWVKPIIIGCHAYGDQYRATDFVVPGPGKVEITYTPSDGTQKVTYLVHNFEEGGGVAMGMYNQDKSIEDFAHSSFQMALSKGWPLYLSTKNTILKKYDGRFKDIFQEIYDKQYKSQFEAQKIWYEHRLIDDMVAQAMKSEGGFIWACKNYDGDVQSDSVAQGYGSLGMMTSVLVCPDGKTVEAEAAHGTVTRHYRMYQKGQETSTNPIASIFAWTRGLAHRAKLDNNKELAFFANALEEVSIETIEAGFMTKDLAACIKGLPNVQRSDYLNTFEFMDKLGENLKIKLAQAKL
T2 sequence (O75874 whole entry R132H): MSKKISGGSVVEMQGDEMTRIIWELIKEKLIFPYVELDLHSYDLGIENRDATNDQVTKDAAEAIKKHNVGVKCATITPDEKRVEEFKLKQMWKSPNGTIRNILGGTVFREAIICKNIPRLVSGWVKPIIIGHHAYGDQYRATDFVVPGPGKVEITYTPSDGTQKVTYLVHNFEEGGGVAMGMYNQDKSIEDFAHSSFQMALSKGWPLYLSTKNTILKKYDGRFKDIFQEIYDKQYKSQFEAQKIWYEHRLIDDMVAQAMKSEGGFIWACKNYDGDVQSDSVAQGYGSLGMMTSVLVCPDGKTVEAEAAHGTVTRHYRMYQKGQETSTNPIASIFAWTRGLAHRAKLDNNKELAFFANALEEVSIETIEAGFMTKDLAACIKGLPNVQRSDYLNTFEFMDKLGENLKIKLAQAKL
T1 sequence (O75874 whole entry R132C): as the sequence (O75874 whole entry R132H) above, with H132C counted along it

Row | SMILES | IC50 [1] | IC50 [2] | IC50 [3]
1 | CCN1Cc2c(ccnc2N[C@@H](C)c2cc(F)c(-c3ccnc(C(C)(C)C)n3)cc2F)C1=O [Compound 111, (S)-4-((1-(4-(2-(tert-butyl)pyrimidin-4-yl)-2,5-difluorophenyl)ethyl)amino)-2-ethyl-2,3-dihydro-1H-pyrrolo[3,4-c]pyridin-1-one] | 100 to 500 nM | < 100 nM | 100 to 500 nM
2 | CCN1Cc2c(ccnc2N[C@@H](C)c2cc(F)c(-c3cc(C#N)ccn3)cc2F)C1=O [Compound 114, (S)-2-(4-(1-((2-ethyl-1-oxo-2,3-dihydro-1H-pyrrolo[3,4-c]pyridin-4-yl)amino)ethyl)-2,5-difluorophenyl)isonicotinonitrile] | > 1000 nM | > 1000 nM | 500 to 1000 nM
3 | CCN1Cc2c(ccnc2N[C@@H](C)c2cc(F)c(-c3cc(C(F)(F)F)ccn3)cc2F)C1=O [Compound 115, (S)-4-((1-(2,5-difluoro-4-(4-(trifluoromethyl)pyridin-2-yl)phenyl)ethyl)amino)-2-ethyl-2,3-dihydro-1H-pyrrolo[3,4-c]pyridin-1-one] | 100 to 500 nM | < 100 nM | 100 to 500 nM
4 | CCN1Cc2c(ccnc2N[C@@H](C)c2cc(F)c(-c3cc(C(F)(F)F)cc(Cl)n3)cc2F)C1=O [Compound 121, (S)-4-((1-(4-(6-chloro-4-(trifluoromethyl)pyridin-2-yl)-2,5-difluorophenyl)ethyl)amino)-2-ethyl-2,3-dihydro-1H-pyrrolo[3,4-c]pyridin-1-one] | 100 to 500 nM | < 100 nM | 500 to 1000 nM
5 | CCN1Cc2c(ccnc2N[C@@H](C)c2cc(F)c(-c3cc(C(F)(F)F)cc(C)n3)cc2F)C1=O [Compound 122, (S)-4-((1-(2,5-difluoro-4-(6-methyl-4-(trifluoromethyl)pyridin-2-yl)phenyl)ethyl)amino)-2-ethyl-2,3-dihydro-1H-pyrrolo[3,4-c]pyridin-1-one] | < 100 nM | < 100 nM | 100 to 500 nM
6 | CCN1Cc2c(ccnc2N[C@@H](C)c2cc(F)c(-c3cc(C(F)(F)F)cc(CF)n3)cc2F)C1=O [Compound 123, (S)-4-((1-(2,5-difluoro-4-(6-(fluoromethyl)-4-(trifluoromethyl)pyridin-2-yl)phenyl)ethyl)amino)-2-ethyl-2,3-dihydro-1H-pyrrolo[3,4-c]pyridin-1-one] | < 100 nM | < 100 nM | 100 to 500 nM
7 | CCN1Cc2c(ccnc2N[C@@H](C)c2cc(F)c(-c3cc(C4(C(F)(F)F)CC4)ccn3)cc2F)C1=O [Compound 124, (S)-4-((1-(2,5-difluoro-4-(4-(1-(trifluoromethyl)cyclopropyl)pyridin-2-yl)phenyl)ethyl)amino)-2-ethyl-2,3-dihydro-1H-pyrrolo[3,4-c]pyridin-1-one] | < 100 nM | < 100 nM | < 100 nM
8 | C/C=C(\c1ccnc(-c2cc(F)c([C@H](C)Nc3nccc4c3CN(CC)C4=O)cc2F)c1)C(F)(F)F [Compound 125, (S,E)-4-((1-(2,5-difluoro-4-(4-(1,1,1-trifluorobut-2-en-2-yl)pyridin-2-yl)phenyl)ethyl)amino)-2-ethyl-2,3-dihydro-1H-pyrrolo[3,4-c]pyridin-1-one] | < 100 nM | < 100 nM | < 100 nM

Now from value to molecule:

Row | IC50 [1] | IC50 [2] | IC50 [3] | SMILES
9 | < 100 nM | < 100 nM | < 100 nM | CCN1Cc2c(ccnc2N[C@@H](C)c2cc(F)c(-c3cc(C(C)(C)C)ccn3)cc2F)C1=O [Compound 108, (S)-4-((1-(4-(4-(tert-butyl)pyridin-2-yl)-2,5-difluorophenyl)ethyl)amino)-2-ethyl-2,3-dihydro-1H-pyrrolo[3,4-c]pyridin-1-one]
10 | < 100 nM | < 100 nM | < 100 nM | CCN1Cc2c(ccnc2N[C@@H](C)c2cc(F)c(-c3cncc(C(C)(C)C)c3)cc2F)C1=O [Compound 109, (S)-4-((1-(4-(5-(tert-butyl)pyridin-3-yl)-2,5-difluorophenyl)ethyl)amino)-2-ethyl-2,3-dihydro-1H-pyrrolo[3,4-c]pyridin-1-one]
11 | < 100 nM | < 100 nM | < 100 nM | CCN1Cc2c(ccnc2N[C@@H](C)c2cc(F)c(-c3cc(C(C)(C)C)ncn3)cc2F)C1=O [Compound 110, (S)-4-((1-(4-(6-(tert-butyl)pyrimidin-4-yl)-2,5-difluorophenyl)ethyl)amino)-2-ethyl-2,3-dihydro-1H-pyrrolo[3,4-c]pyridin-1-one]
12 | < 100 nM | < 100 nM | < 100 nM | CCN1Cc2c(ccnc2N[C@@H](C)c2cc(F)c(-c3cc(C(C)(C)F)ccn3)cc2F)C1=O [Compound 112, (S)-4-((1-(2,5-difluoro-4-(4-(2-fluoropropan-2-yl)pyridin-2-yl)phenyl)ethyl)amino)-2-ethyl-2,3-dihydro-1H-pyrrolo[3,4-c]pyridin-1-one]
13 | < 100 nM | < 100 nM | < 100 nM | CCN1Cc2c(ccnc2N[C@@H](C)c2cc(F)c(-c3cc(C(C)(C)F)cc(C)n3)cc2F)C1=O [Compound 113, (S)-4-((1-(2,5-difluoro-4-(4-(2-fluoropropan-2-yl)-6-methylpyridin-2-yl)phenyl)ethyl)amino)-2-ethyl-2,3-dihydro-1H-pyrrolo[3,4-c]pyridin-1-one]
14 | < 100 nM | < 100 nM | < 100 nM | CCN1Cc2c(ccnc2N[C@@H](C)c2cc(F)c(-c3cc(C(C)(C)C)ncc3OC)cc2F)C1=O [Compound 116, (S)-4-((1-(4-(2-(tert-butyl)-5-methoxypyridin-4-yl)-2,5-difluorophenyl)ethyl)amino)-2-ethyl-2,3-dihydro-1H-pyrrolo[3,4-c]pyridin-1-one]
15 | < 100 nM | < 100 nM | < 100 nM | CCN1Cc2c(ccnc2N[C@@H](C)c2cc(F)c(-c3nc(C(C)(C)C)ccc3OC)cc2F)C1=O [Compound 117, (S)-4-((1-(4-(6-(tert-butyl)-3-methoxypyridin-2-yl)-2,5-difluorophenyl)ethyl)amino)-2-ethyl-2,3-dihydro-1H-pyrrolo[3,4-c]pyridin-1-one]
16 | < 100 nM | < 100 nM | < 100 nM | CCN1Cc2c(ccnc2N[C@@H](C)c2cc(F)c(-c3cc(C(C)(C)F)cc(CF)n3)cc2F)C1=O [Compound 118, (S)-4-((1-(2,5-difluoro-4-(6-(fluoromethyl)-4-(2-fluoropropan-2-yl)pyridin-2-yl)phenyl)ethyl)amino)-2-ethyl-2,3-dihydro-1H-pyrrolo[3,4-c]pyridin-1-one]
17 | < 100 nM | < 100 nM | < 100 nM | CCN1Cc2c(ccnc2N[C@@H](C)c2cc(F)c(-c3cc(C(C)(C)F)cc(F)n3)cc2F)C1=O [Compound 119, (S)-4-((1-(2,5-difluoro-4-(6-fluoro-4-(2-fluoropropan-2-yl)pyridin-2-yl)phenyl)ethyl)amino)-2-ethyl-2,3-dihydro-1H-pyrrolo[3,4-c]pyridin-1-one]
18 | < 100 nM | < 100 nM | < 100 nM | CCN1Cc2c(ccnc2N[C@@H](C)c2cc(F)c(-c3cc(C(C)(C)F)cc(OC)n3)cc2F)C1=O [Compound 120, (S)-4-((1-(2,5-difluoro-4-(4-(2-fluoropropan-2-yl)-6-methoxypyridin-2-yl)phenyl)ethyl)amino)-2-ethyl-2,3-dihydro-1H-pyrrolo[3,4-c]pyridin-1-one]
